According to patent US20200039918A1, “METHOD FOR PREPARING SINGLE CRYSTAL OF ANHYDROUS HALOGENATED CHOLINE OR DERIVATIVE THEREOF” (HEBEI UNIVERSITY OF SCIENCE AND TECHNOLOGY, priority 2017, published 2020):

Key:
[1] = water absorption and agglomeration after being placed in the air for 24 hours; type: physicochemical
[2] = TG
Procedure: The crystal structure and thermal stability of anhydrous choline chloride single crystal product obtained in Experiment example 1 were analyzed, respectively.

Compound | agglomeration [1] | water absorption amount [1] [wt %] | initial temperature of thermal cracking ([2]; FIG. 5) [°C] | temperature at which the weight loss rate reaches the maximum ([2]; FIG. 5) [°C] | thermal stability (comparison in words) ([2]; versus commercial product) | temperature at which weight loss began ([2]; weight loss ascribed to evaporation of water) [°C]
CC(=O)OCC[N+](C)(C)C.[Cl-] [acetylcholine chloride] | not agglomerated | 1.58 | – | – | – | –
C[N+](C)(C)CCO.[I-] [anhydrous choline iodide single crystal, choline iodide] | not agglomerated | 2.30 | – | – | – | –
C[N+](C)(C)CCO.[Cl-] [choline chloride] | not agglomerated | 2.58 | 350 | 370 | better than that of commercial choline chloride | 330
CCC(=O)OCC[N+](C)(C)C.[Br-] [propionylcholine bromide] | not agglomerated | 0.77 | – | – | – | –
CCC(=O)OCC[N+](C)(C)C.[Cl-] [propionylcholine chloride] | not agglomerated | 1.06 | – | – | – | –
